In ChEMBL document CHEMBL4043199, “Synthesis and optimization of 4,5,6,7-tetrahydrooxazolo[4,5-c]pyridines as potent and orally-active metabotropic glutamate receptor 5 negative allosteric modulators” (Bioorg Med Chem Lett, 2017):
In brackets after ≈: the same amount, converted by molar mass. One block for each compound: values may come before it.

Assays:
[1] = molecular target: Metabotropic glutamate receptor 5 (Homo sapiens, UniProt P41594); experiment: Negative allosteric modulation of human recombinant mGluR5 expressed in HEK293 cells assessed as inhibition of glutamate-induced calcium mobilization preincubated for 2 mins followed glutamate addition measured by fluorescence assay; assay type: functional, cell-based
Metabotropic glutamate receptor 5, sequence (P41594 whole entry): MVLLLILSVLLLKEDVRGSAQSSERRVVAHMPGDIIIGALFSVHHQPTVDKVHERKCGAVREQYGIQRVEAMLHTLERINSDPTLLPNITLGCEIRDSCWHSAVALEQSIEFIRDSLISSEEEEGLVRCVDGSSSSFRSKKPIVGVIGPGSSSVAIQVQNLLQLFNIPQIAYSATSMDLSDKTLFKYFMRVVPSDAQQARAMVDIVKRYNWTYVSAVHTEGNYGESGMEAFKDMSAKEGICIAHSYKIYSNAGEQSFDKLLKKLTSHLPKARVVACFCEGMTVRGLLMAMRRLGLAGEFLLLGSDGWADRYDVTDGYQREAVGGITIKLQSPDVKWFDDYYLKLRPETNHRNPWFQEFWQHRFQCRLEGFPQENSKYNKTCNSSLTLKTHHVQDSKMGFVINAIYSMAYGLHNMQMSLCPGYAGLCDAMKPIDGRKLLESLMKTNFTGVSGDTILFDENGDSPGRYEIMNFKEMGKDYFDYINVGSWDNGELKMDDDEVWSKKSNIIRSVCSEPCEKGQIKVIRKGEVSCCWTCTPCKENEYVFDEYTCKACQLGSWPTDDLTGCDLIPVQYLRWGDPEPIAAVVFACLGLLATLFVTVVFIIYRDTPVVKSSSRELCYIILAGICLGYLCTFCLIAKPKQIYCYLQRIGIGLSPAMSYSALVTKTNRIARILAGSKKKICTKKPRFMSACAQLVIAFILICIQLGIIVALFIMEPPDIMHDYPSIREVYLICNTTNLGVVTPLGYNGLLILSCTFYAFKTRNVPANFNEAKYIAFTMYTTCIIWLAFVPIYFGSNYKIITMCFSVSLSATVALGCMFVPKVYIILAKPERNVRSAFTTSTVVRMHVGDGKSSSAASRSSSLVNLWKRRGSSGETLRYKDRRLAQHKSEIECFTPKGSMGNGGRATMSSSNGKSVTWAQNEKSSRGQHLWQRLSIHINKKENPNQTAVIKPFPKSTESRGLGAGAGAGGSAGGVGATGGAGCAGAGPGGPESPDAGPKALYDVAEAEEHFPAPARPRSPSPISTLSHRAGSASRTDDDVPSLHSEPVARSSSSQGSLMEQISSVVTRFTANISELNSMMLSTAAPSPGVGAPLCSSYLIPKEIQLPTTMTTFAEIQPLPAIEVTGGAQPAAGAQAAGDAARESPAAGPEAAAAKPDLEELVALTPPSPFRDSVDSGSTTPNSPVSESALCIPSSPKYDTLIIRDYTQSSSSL

[2] = Metabolic stability in human hepatic microsomes assessed as parent compound remaining at 1 uM after 30 mins in presence of NADPH by LC-MS/MS analysis relative to control; assay type: ADME, Microsome; details: liver microsomes, read-out: Stability
[3] = Metabolic stability in rat hepatic microsomes assessed as parent compound remaining at 1 uM after 30 mins in presence of NADPH by LC-MS/MS analysis relative to control; assay type: ADME, Microsome; details: liver microsomes, read-out: Stability
[4] = Half life in rat at 1 mg/kg, iv; assay type: ADME, organism-based; details: in vivo
[5] = Clearance in monkey at 0.5 mg/kg, iv after 24 hrs; assay type: ADME, organism-based, Macaca mulatta; details: rhesus monkey, in vivo
Cytochrome P450 2C8 = molecular target: T1, Cytochrome P450 2C8 (Homo sapiens, UniProt P10632); experiment: (§1) Inhibition of CYP2C8 in human liver microsomes using amodiaquine as substrate after 10 mins by LC-MS/MS analysis; assay type: ADME
T1 sequence (P10632 whole entry): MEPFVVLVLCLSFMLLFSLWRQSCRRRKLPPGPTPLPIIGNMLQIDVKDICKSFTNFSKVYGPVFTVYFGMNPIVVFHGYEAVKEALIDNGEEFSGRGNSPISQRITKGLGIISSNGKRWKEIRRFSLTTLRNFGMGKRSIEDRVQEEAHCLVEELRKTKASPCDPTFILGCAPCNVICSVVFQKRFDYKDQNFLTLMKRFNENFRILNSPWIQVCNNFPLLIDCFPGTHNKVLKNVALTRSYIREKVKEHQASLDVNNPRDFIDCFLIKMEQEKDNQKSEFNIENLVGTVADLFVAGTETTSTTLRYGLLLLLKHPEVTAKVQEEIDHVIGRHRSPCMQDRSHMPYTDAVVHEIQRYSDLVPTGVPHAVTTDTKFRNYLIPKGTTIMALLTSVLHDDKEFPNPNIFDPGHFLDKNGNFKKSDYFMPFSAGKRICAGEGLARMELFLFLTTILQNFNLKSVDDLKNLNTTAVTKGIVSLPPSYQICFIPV

Cytochrome P450 2D6 = Cytochrome P450 2D6 (Homo sapiens, UniProt P10635); experiment: (§2) Inhibition of CYP2D6 in human liver microsomes using bufuralol as substrate after 10 mins by LC-MS/MS analysis; assay type: ADME
Cytochrome P450 2D6, sequence (P10635 whole entry): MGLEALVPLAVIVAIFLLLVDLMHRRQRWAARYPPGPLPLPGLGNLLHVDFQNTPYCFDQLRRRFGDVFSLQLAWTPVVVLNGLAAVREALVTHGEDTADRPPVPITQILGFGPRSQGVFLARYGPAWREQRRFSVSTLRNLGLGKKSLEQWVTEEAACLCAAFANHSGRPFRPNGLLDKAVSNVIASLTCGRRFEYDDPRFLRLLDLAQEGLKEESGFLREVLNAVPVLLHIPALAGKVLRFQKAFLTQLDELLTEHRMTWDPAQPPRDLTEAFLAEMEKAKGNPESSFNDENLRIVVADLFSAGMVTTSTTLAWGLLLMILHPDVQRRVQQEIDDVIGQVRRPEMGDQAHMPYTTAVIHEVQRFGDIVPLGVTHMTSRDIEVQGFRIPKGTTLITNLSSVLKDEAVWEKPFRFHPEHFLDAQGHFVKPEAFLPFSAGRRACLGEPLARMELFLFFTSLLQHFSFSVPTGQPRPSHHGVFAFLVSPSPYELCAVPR

[6] = Volume of distribution at steady state in monkey at 0.5 mg/kg, iv after 24 hrs; assay type: ADME, organism-based, Macaca mulatta; details: rhesus monkey, in vivo, read-out: Vdss
[7] = Volume of distribution at steady state in rat at 1 mg/kg, iv after 24 hrs; assay type: ADME, organism-based; details: in vivo, read-out: Vdss
Rattus norvegicus [8] = experiment: Oral bioavailability in rat at 10 mg/kg; assay type: ADME, organism-based; details: in vivo
[9] = AUC in rat at 10 mg/kg, po; assay type: ADME, organism-based; details: in vivo
[10] = Half life in monkey at 0.5 mg/kg, iv; assay type: ADME, organism-based, Macaca mulatta; details: rhesus monkey, in vivo
Cytochrome P450 2C19 = Cytochrome P450 2C19 (Homo sapiens, UniProt P33261); experiment: (§3) Inhibition of CYP2C19 in human liver microsomes using (S)-mephenytoin as substrate after 10 mins by LC-MS/MS analysis; assay type: ADME
Cytochrome P450 2C19, sequence (P33261 whole entry): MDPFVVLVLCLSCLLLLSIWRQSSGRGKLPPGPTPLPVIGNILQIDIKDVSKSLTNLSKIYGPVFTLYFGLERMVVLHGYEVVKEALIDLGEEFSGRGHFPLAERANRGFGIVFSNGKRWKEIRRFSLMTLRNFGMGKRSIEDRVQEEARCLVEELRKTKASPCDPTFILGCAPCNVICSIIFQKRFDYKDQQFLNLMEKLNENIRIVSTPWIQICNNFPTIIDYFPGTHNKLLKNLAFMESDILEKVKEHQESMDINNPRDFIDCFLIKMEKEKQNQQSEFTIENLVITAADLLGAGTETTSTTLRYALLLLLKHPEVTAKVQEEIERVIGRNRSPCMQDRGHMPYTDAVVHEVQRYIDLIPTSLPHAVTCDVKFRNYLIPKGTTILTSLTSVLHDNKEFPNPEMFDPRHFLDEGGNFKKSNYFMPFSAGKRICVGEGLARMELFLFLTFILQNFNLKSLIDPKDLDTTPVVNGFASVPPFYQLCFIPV

[11] = AUC in monkey at 0.5 mg/kg, iv; assay type: ADME, organism-based, Macaca mulatta; details: rhesus monkey, in vivo
Rattus norvegicus [12] = experiment: Ex vivo receptor occupancy at mGluR5 in Sprague-Dawley rat brain po administered daily for 4 days in presence of [3H]-MPEPy by liquid scintillation counting method; assay type: functional, organism-based
Cytochrome P450 2A6 = molecular target: T2, Cytochrome P450 2A6 (Homo sapiens, UniProt P11509); experiment: (§4) Inhibition of CYP2A6 in human liver microsomes using coumarin as substrate after 10 mins by LC-MS/MS analysis; assay type: ADME
T2 sequence (P11509 whole entry): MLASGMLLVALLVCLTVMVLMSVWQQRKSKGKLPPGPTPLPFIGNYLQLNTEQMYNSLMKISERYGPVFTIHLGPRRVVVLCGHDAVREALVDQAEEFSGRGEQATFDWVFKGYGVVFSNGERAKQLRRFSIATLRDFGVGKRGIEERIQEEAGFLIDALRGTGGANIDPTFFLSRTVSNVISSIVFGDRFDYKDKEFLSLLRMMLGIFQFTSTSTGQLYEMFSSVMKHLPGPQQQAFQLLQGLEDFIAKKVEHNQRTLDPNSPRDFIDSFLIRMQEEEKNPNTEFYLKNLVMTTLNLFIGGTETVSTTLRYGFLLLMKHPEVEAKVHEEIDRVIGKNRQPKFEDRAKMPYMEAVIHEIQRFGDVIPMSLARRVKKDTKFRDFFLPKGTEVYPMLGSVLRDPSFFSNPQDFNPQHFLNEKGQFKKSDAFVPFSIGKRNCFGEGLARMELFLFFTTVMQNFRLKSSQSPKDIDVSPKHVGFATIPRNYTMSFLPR

Cytochrome P450 3A4 = Cytochrome P450 3A4 (Homo sapiens, UniProt P08684); experiment: (§5) Inhibition of CYP3A4 in human liver microsomes using midazolam as substrate after 10 mins by LC-MS/MS analysis; assay type: ADME
Cytochrome P450 3A4, sequence (P08684 whole entry): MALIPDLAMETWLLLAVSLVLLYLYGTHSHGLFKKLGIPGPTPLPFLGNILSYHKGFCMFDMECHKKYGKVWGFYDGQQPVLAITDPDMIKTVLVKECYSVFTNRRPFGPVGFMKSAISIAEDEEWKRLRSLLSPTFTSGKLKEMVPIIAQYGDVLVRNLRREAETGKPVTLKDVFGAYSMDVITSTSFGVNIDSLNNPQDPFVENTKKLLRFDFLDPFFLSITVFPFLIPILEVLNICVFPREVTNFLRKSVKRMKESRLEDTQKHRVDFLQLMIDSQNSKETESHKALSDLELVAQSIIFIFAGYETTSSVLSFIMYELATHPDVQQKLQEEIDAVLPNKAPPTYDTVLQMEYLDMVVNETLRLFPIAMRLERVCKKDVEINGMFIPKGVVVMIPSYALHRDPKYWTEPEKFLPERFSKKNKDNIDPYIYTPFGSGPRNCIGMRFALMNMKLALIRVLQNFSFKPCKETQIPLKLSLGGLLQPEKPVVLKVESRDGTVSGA

Rattus norvegicus [13] = experiment: Toxicity in rat at 100 mg/kg, po qd administered via gavage for 14 days; assay type: organism-based; details: in vivo, 336 h
[14] = AUC in monkey at 10 mg/kg, po; assay type: ADME, organism-based, Macaca mulatta; details: rhesus monkey, in vivo
Cytochrome P450 1A2 = molecular target: T3, Cytochrome P450 1A2 (Homo sapiens, UniProt P05177); experiment: (§6) Inhibition of CYP1A2 in human liver microsomes using phenacetin as substrate after 10 mins by LC-MS/MS analysis; assay type: ADME
T3 sequence (P05177 whole entry): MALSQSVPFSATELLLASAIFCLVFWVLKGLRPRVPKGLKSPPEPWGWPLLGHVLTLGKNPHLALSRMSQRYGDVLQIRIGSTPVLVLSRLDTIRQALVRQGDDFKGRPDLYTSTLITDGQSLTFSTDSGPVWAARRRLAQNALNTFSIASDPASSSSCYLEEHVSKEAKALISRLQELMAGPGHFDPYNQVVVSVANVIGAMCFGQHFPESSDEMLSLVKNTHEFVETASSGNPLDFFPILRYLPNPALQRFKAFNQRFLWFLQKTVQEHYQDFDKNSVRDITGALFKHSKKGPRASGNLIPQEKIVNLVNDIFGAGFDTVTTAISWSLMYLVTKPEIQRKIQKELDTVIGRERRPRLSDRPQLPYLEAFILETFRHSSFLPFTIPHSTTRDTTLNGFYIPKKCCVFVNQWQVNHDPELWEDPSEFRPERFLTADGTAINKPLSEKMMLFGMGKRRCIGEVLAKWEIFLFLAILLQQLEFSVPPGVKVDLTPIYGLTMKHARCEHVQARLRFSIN

[15] = Cmax in monkey at 10 mg/kg, po; assay type: ADME, organism-based, Macaca mulatta; parameters: dose 10 mg/kg, route oral; details: rhesus monkey, in vivo
[16] = Oral bioavailability in monkey at 10 mg/kg; assay type: ADME, organism-based, Macaca mulatta; details: rhesus monkey, in vivo
[17] = […] of CYP450 in human liver microsomes as substrate after 10 mins by LC-MS/MS analysis; assay type: ADME
[18] = Clearance in rat at 1 mg/kg, iv after 24 hrs; assay type: ADME, organism-based; details: in vivo
[19] = Cmax in rat at 10 mg/kg, po; assay type: ADME, organism-based; parameters: dose 10 mg/kg, route oral; details: in vivo
Salmonella typhimurium = experiment: Genotoxicity in Salmonella typhimurium by Ames test; assay type: toxicity; details: salmonella enterica subsp. enterica serovar typhimurium
Cytochrome P450 2C9 = Cytochrome P450 2C9 (Homo sapiens, UniProt P11712); experiment: (§7) Inhibition of CYP2C9 in human liver microsomes using diclofenac as substrate after 10 mins by LC-MS/MS analysis; assay type: ADME
Cytochrome P450 2C9, sequence (P11712 whole entry): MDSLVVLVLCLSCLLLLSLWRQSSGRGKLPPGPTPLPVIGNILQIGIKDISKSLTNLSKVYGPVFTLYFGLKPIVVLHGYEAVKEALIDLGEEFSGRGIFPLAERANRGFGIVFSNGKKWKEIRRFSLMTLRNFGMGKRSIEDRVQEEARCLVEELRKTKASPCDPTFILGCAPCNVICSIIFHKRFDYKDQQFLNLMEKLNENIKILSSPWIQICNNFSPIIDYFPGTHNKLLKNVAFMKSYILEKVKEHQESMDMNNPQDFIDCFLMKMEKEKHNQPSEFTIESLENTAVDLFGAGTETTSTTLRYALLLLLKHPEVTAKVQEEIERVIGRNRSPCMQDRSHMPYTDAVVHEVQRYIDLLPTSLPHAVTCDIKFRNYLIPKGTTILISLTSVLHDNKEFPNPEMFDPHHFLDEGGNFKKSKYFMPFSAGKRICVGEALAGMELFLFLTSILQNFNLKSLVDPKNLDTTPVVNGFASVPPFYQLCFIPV

[20] = Permeability of the compound at pH 7.4 by PAMPA; assay type: physicochemical; details: read-out: permeability
[21] = AUC in rat at 1 mg/kg, iv; assay type: ADME, organism-based; details: in vivo
[22] = Aqueous solubility of compound at pH 7.4; assay type: physicochemical; details: aqueous medium
P-gp = experiment: Substrate activity at P-gp (unknown origin) assessed as efflux ratio; assay type: ADME; details: human, not told
CYP2C8 = molecular target: T4, CYP2C8 (Homo sapiens, UniProt P10632); experiment: as §1; assay type: ADME; details: human, liver microsomes, probe amodiaquine
T4 sequence (P10632 whole entry): T1 sequence (P10632 whole entry)

CYP2D6 = CYP2D6 (Homo sapiens, UniProt P10635); experiment: as §2; assay type: ADME; details: human, liver microsomes, probe bufuralol
CYP2D6, sequence (P10635 whole entry): as the sequence (P10635 whole entry) above

CYP2C19 = CYP2C19 (Homo sapiens, UniProt P33261); experiment: as §3; assay type: ADME; details: human, liver microsomes, probe (S)-mephenytoin
CYP2C19, sequence (P33261 whole entry): as the sequence (P33261 whole entry) above

CYP2A6 = molecular target: T5, CYP2A6 (Homo sapiens, UniProt P11509); experiment: as §4; assay type: ADME; details: human, liver microsomes, probe coumarin
T5 sequence (P11509 whole entry): T2 sequence (P11509 whole entry)

CYP3A4 = CYP3A4 (Homo sapiens, UniProt P08684); experiment: as §5; assay type: ADME; details: human, liver microsomes, probe midazolam
CYP3A4, sequence (P08684 whole entry): as the sequence (P08684 whole entry) above

CYP1A2 = molecular target: T6, CYP1A2 (Homo sapiens, UniProt P05177); experiment: as §6; assay type: ADME; details: human, liver microsomes, probe phenacetin
T6 sequence (P05177 whole entry): T3 sequence (P05177 whole entry)

CYP2C9 = CYP2C9 (Homo sapiens, UniProt P11712); experiment: as §7; assay type: ADME; details: human, liver microsomes, probe diclofenac
CYP2C9, sequence (P11712 whole entry): as the sequence (P11712 whole entry) above

Compound: Cc1cc(Cl)cc(C(=O)N2CCc3oc(-c4ccc(F)cn4)nc3C2)c1
IC50 [1]: 46 nM | remaining at 0.5 h, 1 µM [2]: > 91% | remaining at 0.5 h, 1 µM [3]: > 91%

Compound: O=C(c1cccc(F)c1)N1CCc2oc(-c3ccc(F)cn3)nc2C1
half-life [4]: 2 h | clearance [5]: 2.8 mL/min/kg | IC50 (Cytochrome P450 2C8): > 50000 nM | IC50 (Cytochrome P450 2D6): > 50000 nM | Vd [6]: 2.2 L/kg | Vd [7]: 1.6 L/kg | F (Rattus norvegicus [8]): 168% | AUC [9]: 26100 ng·h/mL | IC50 [1]: 63 nM | half-life [10]: 9.5 h | IC50 (Cytochrome P450 2C19): > 50000 nM | AUC [11]: 3050 ng·h/mL | Activity (Rattus norvegicus [12]): Dose-dependent effect | IC50 (Cytochrome P450 2A6): > 50000 nM | remaining at 0.5 h, 1 µM [2]: 91 to 97% | IC50 (Cytochrome P450 3A4): > 50000 nM | Activity (Rattus norvegicus [13]): Non-Toxic | AUC [14]: 69200 ng·h/mL | IC50 (Cytochrome P450 1A2): > 50000 nM | remaining at 0.5 h, 1 µM [3]: 91 to 97% | Cmax [15]: 4060 ng/mL | bioavailability [16]: 114% | Activity [17]: Not Active | clearance [18]: 10.8 mL/min/kg | Cmax [19]: 2070 ng/mL | Activity (Salmonella typhimurium): Non-Toxic | IC50 (Cytochrome P450 2C9): > 50000 nM | Papp [20]: 31.7 ×10⁻⁶ cm/s | AUC [21]: 1550 ng·h/mL | solubility [22]: 23 µg/mL (≈ 67.4 µM)

Compound: COc1cccc(C(=O)N2CCc3oc(-c4ccc(F)cn4)nc3C2)c1
IC50 [1]: 157 nM | remaining at 0.5 h, 1 µM [2]: > 91% | remaining at 0.5 h, 1 µM [3]: > 91%

Compound: O=C(c1ccc(F)cc1)N1CCc2oc(-c3ccc(F)cn3)nc2C1
IC50 [1]: 90 nM | remaining at 0.5 h, 1 µM [2]: > 91% | remaining at 0.5 h, 1 µM [3]: > 91%

Compound: Cc1ccc(-c2nc3c(o2)CCN(C(=O)c2ccccc2)C3)nc1
IC50 [1]: 177 nM

Compound: O=C(c1ccccc1)N1CCc2oc(-c3ccc(Cl)cn3)nc2C1
IC50 [1]: 32 nM

Results, then the compound that gave them:

efflux ratio (P-gp): 1.2 | IC50 at 10 min (CYP2C8): > 40000 nM | IC50 at 10 min (CYP2D6): > 40000 nM | IC50 at 10 min (CYP2C19): > 40000 nM | IC50 at 10 min (CYP2A6): > 40000 nM | remaining at 0.5 h, 1 µM [2]: > 97% | IC50 at 10 min (CYP3A4): > 40000 nM | IC50 at 10 min (CYP1A2): > 40000 nM | remaining at 0.5 h, 1 µM [3]: > 97% | Activity [17]: Not Active | IC50 at 10 min (CYP2C9): > 40000 nM | solubility [22]: 4 µg/mL (≈ 10.7 µM)
Compound: O=C(c1cc(F)cc(Cl)c1)N1CCn2nc(-c3ccc(F)cn3)cc2C1

IC50 [1]: 58 nM | remaining at 0.5 h, 1 µM [2]: > 91% | remaining at 0.5 h, 1 µM [3]: > 91%
Compound: O=C(c1ccccc1F)N1CCc2oc(-c3ccc(F)cn3)nc2C1

IC50 [1]: 50 nM | remaining at 0.5 h, 1 µM [2]: > 91% | remaining at 0.5 h, 1 µM [3]: > 91%
Compound: O=C(c1cccc(Cl)c1)N1CCc2oc(-c3ccc(F)cn3)nc2C1

IC50 [1]: 403 nM | remaining at 0.5 h, 1 µM [2]: > 97% | remaining at 0.5 h, 1 µM [3]: > 97%
Compound: N#Cc1cc(F)cc(C(=O)N2CCc3oc(-c4ccc(F)cn4)nc3C2)c1

IC50 [1]: 174 nM
Compound: O=C(c1ccccc1)N1CCc2oc(-c3ccc(Br)cn3)nc2C1

IC50 [1]: 237 nM
Compound: N#Cc1ccc(-c2nc3c(o2)CCN(C(=O)c2ccccc2)C3)nc1
